This test relates to patients with dry eye disorder and other eye symptoms. In words: Clinical usage of deacidified coconut oil for treating eye diseases or disorders (three patients). The test is classed as in vivo, human. To be noted: before deacidified coconut oil. Here is the method: The deacidified coconut oil was initially developed for treating the dry eye disorder. As the research continued, it was determined that the deacidified coconut oil can also be used to treat asthenopia, impaired vision, blurred vision, photophobia, astigmatism, and blepharitis. As shown in the following cases, the deacidified coconut oil was successfully administered to three patients with positive outcomes.
[…] […] […] […] […] In 2013-2014, the patient developed additional eye symptoms including astigmatism, blepharitis, anxiety and body weight loss (e.g., about 10 kilograms). In 2015, the patient used the deacidified coconut oil as described herein as eye drops, placed the thermal pad as described herein on the eyes, and took herb composition as described herein. […] In 2019, the symptoms of dry eye disorder including pain, dryness, redness, foreign matter sensation and insomnia were gone. In addition, symptoms such as repetitive visual fatigue, decreased vision, blurred vision, photophobia, sensitivity to wind, astigmatism, and eyelid inflammation disappeared. The patient's overall vision condition improved relative to that in 2015. The eyeglass prescription for both eyes decreased by 1.50-2.00.
The second patient, person. […]

Consider “Recombinant Bovine Basic Fibroblast Growth Factor Eye Drops: Recombinant Bovine Basic Fibroblast Growth Factor Eye Drops”, for which the “effect of earlier treatment, second patient” value is listed as “No significant improvement was observed”.

The record behind these values is patent publication US10933111B2, “Treating dry eye disorders” (Boston Biotechnology US CORP, priority 2019, dated 2021).
